# Test results taken from patent US9499550B2 (BRISTOL-MYERS SQUIBB COMPANY, priority 2012, dated 2016).
# Where two headings read alike, the source gives them in different places.
# How the values were obtained:
# [1] = test system: HCV genotype 1a (H77 strain) replicon in HUH-7 cells; assay: HCV replicon luciferase reporter assay, genotype 1a; type: cell-based; conditions: Hepatitis C virus, Huh-7, 72 h, 3 days incubation
# In short: (§1)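 Replicon inhibition for both genotypes was measured as Renilla luciferase signal (EnduRen, 7.5 μM final, 2 h) after 3-day, 37° C exposure of replicon-bearing HUH-7 cells in 4% FCS DMEM, 0.5% DMSO. The 1b construct carries S1179I; the 1a H77 construct carries P1496L and S2204I. Twenty-point, 3-fold dilutions were fitted four-parametrically for EC50, and CC50 was taken from multiplexed Cell Titer-Blue.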
# [2] = test system: HCV genotype 1b (Con1) replicon in HUH-7 cells; assay: HCV replicon luciferase reporter assay, genotype 1b; type: cell-based; conditions: Hepatitis C virus, Huh-7, 72 h, 3 days incubation
# In short: as §1
# [3] = HCV genotype 1a replicon luciferase, read-out: LE_1a (EC50, range)
# [4] = HCV genotype 1b replicon luciferase, read-out: LE_1b (EC50, range)
# [5] = GETYPE1A, HCV genotype 1a replicon luciferase, read-out: LE_1a (EC50, range)
# [6] = GETYPE1B, HCV genotype 1b replicon luciferase, read-out: LE_1b (EC50, range)
# [7] = HCV genotype 1a replicon luciferase assay, range class, read-out: LE_1a (EC50, range)
# [8] = HCV genotype 1b replicon luciferase assay, range class, read-out: LE_1b (EC50, range)
SMILES,"EC50 [1, 5]","EC50 [2, 6]","EC50 [1, 7]","EC50 [2, 8]",further results
"COc1ccc2c(O[C@@H]3C[C@H]4C(=O)N[C@]5(C(=O)NS(=O)(=O)C6CC6)C[C@H]5/C=C\CC[C@@H](C)C[C@@H](C)[C@H](NC(=O)OC(C)(C)C)C(=O)N4C3)nccc2c1 [Compound 1205, tert-butyl ((2R,6S,7R,9R,13aS,14aR,16aS,Z)-14a-((cyclopropylsulfonyl)carbamoyl)-2-((6-methoxyisoquinolin-1-yl)oxy)-7,9-dimethyl-5,16-dioxo-1,2,3,5,6,7,8,9,10,11,13a,14,14a,15,16,16a-hexadecahydrocyclopropa[e]pyrrolo[1,2-a][1,4]diazacyclopentadecin-6-yl)carbamate]",,,,,"EC50 ([1]; HCV genotype 1a replicon luciferase, read-out: LE_1a (EC50)): 0.62 nM; EC50 [1, 3]: 0.51 to 1 nM; EC50 ([2]; HCV genotype 1b replicon luciferase, read-out: LE_1b (EC50)): 0.75 nM; EC50 [2, 4]: 0.51 to 1 nM"
"COc1ccc2c(O[C@@H]3C[C@H]4C(=O)N[C@]5(C(=O)NS(=O)(=O)C6CC6)C[C@H]5/C=C\CC[C@H](C)C[C@@H](C)[C@H](NC(=O)OC(C)(C)C)C(=O)N4C3)nccc2c1 [Compound 1206, tert-butyl ((2R,6S,7R,9S,13aS,14aR,16aS,Z)-14a-((cyclopropylsulfonyl)carbamoyl)-2-((6-methoxyisoquinolin-1-yl)oxy)-7,9-dimethyl-5,16-dioxo-1,2,3,5,6,7,8,9,10,11,13a,14,14a,15,16,16a-hexadecahydrocyclopropa[e]pyrrolo[1,2-a][1,4]diazacyclopentadecin-6-yl)carbamate]",,,,,"EC50 [1, 3]: 1.01 to 5 nM; EC50 [2, 4]: 1.01 to 5 nM"
"COc1cnc(O[C@@H]2C[C@H]3C(=O)N[C@]4(C(=O)NS(=O)(=O)C5CC5)C[C@H]4/C=C\CC[C@@H](C)C[C@@H](C)[C@H](NC(=O)OC(C)(C)C)C(=O)N3C2)c2cc(Cl)ccc12 [Compound 1207, tert-butyl ((2R,6S,7R,9R,13aS,14aR,16aS,Z)-2-((7-chloro-4-methoxyisoquinolin-1-yl)oxy)-14a-((cyclopropylsulfonyl)carbamoyl)-7,9-dimethyl-5,16-dioxo-1,2,3,5,6,7,8,9,10,11,13a,14,14a,15,16,16a-hexadecahydrocyclopropa[e]pyrrolo[1,2-a][1,4]diazacyclopentadecin-6-yl)carbamate]",,,,,"EC50 [1, 3]: 1.01 to 5 nM; EC50 [2, 4]: 0.51 to 1 nM"
"COc1cnc(O[C@@H]2C[C@H]3C(=O)N[C@]4(C(=O)NS(=O)(=O)C5CC5)C[C@H]4/C=C\CC[C@H](C)C[C@@H](C)[C@H](NC(=O)OC(C)(C)C)C(=O)N3C2)c2cc(Cl)ccc12 [Compound 1208, tert-butyl ((2R,6S,7R,9S,13aS,14aR,16aS,Z)-2-((7-chloro-4-methoxyisoquinolin-1-yl)oxy)-14a-((cyclopropylsulfonyl)carbamoyl)-7,9-dimethyl-5,16-dioxo-1,2,3,5,6,7,8,9,10,11,13a,14,14a,15,16,16a-hexadecahydrocyclopropa[e]pyrrolo[1,2-a][1,4]diazacyclopentadecin-6-yl)carbamate]",,,,,"EC50 [1, 3]: 5.01 to 35 nM; EC50 [2, 4]: 1.01 to 5 nM"
CC[C@@H]1C[C@H](C)CC/C=C\[C@@H]2C[C@@]2(C(=O)NS(=O)(=O)C2(C)CC2)NC(=O)[C@@H]2C[C@@H](Oc3cc(OC)nc4cc(OC)ccc34)CN2C(=O)[C@H]1NC(=O)OC(C)(C)C(F)(F)F [Compound 1209],5.01 to 35 nM,1.01 to 5 nM,,,"EC50 ([1]; GETYPE1A, HCV genotype 1a replicon luciferase, read-out: LE_1a (EC50)): 5.66 nM; EC50 ([2]; GETYPE1B, HCV genotype 1b replicon luciferase, read-out: LE_1b (EC50)): 2 nM"
CC[C@@H]1C[C@H](C)CC/C=C\[C@@H]2C[C@@]2(C(=O)NS(=O)(=O)C2(C)CC2)NC(=O)[C@@H]2C[C@@H](Oc3cc(OC)nc4cc(OC)ccc34)CN2C(=O)[C@H]1NC(=O)OC(C)(C)C(C)(F)F [Compound 1210],1.01 to 5 nM,0.51 to 1 nM,,,
CC[C@@H]1C[C@H](C)CC/C=C\[C@@H]2C[C@@]2(C(=O)NS(=O)(=O)C2CC2)NC(=O)[C@@H]2C[C@@H](Oc3cc(OC)nc4cc(OC)ccc34)CN2C(=O)[C@H]1NC(=O)OC(C)(C)C(F)(F)F [Compound 1211],1.01 to 5 nM,0.51 to 1 nM,,,
CC[C@@H]1C[C@H](C)CC/C=C\[C@@H]2C[C@@]2(C(=O)NS(=O)(=O)C2CC2)NC(=O)[C@@H]2C[C@@H](Oc3cc(OC)nc4cc(OC)ccc34)CN2C(=O)[C@H]1NC(=O)OC(C)(C)C(C)(F)F [Compound 1212],1.01 to 5 nM,0.1 to 0.5 nM,,,
COc1ccc2c(O[C@@H]3C[C@H]4C(=O)N[C@]5(C(=O)NS(=O)(=O)C6(C)CC6)C[C@H]5/C=C\CC[C@@H](C)C[C@@H](C)[C@H](NC(=O)OC(C)(C)C(F)(F)F)C(=O)N4C3)cc(OC)nc2c1 [Compound 1213],1.01 to 5 nM,0.51 to 1 nM,,,
COc1ccc2c(O[C@@H]3C[C@H]4C(=O)N[C@]5(C(=O)NS(=O)(=O)C6(C)CC6)C[C@H]5/C=C\CC[C@@H](C)C[C@@H](C)[C@H](NC(=O)OC(C)(C)C(C)(F)F)C(=O)N4C3)cc(OC)nc2c1 [Compound 1214],1.01 to 5 nM,0.1 to 0.5 nM,,,
"C[C@@H]1CCC(O)C[C@@H]2C[C@@]2(C(=O)NS(=O)(=O)C2(C)CC2)NC(=O)[C@@H]2C[C@@H](Oc3ncc(OC4CC4)c4ccccc34)CN2C(=O)[C@@H](NC(=O)OC(C)(C)C(F)(F)F)[C@H](C)C1 (stereo partly drawn) [Compound 2001, 1,1,1-trifluoro-2-methylpropan-2-yl ((2R,6S,7R,9R,13aS,14aR,16aS)-2-((4-cyclopropoxyisoquinolin-1-yl)oxy)-12-hydroxy-7,9-dimethyl-14a-(((1-methylcyclopropyl)sulfonyl)carbamoyl)-5,16-dioxooctadecahydrocyclopropa[e]pyrrolo[1,2-a][1,4]diazacyclopentadecin-6-yl)carbamate]",,,4.82 to 103 nM,4.82 to 103 nM,
C[C@@H]1CCCC(O)[C@@H]2C[C@@]2(C(=O)NS(=O)(=O)C2(C)CC2)NC(=O)[C@@H]2C[C@@H](Oc3ncc(OC4CC4)c4ccccc34)CN2C(=O)[C@@H](NC(=O)OC(C)(C)C(F)(F)F)[C@H](C)C1 (some centres unmarked) [Compound 2002],,,4.82 to 103 nM,4.82 to 103 nM,
"C[C@@H]1CC/C=C\[C@@H]2C[C@@]2(C(=O)NS(=O)(=O)C2(C)CC2)NC(=O)[C@@H]2C[C@@H](Oc3nccc4cc(OCC(=O)O)ccc34)CN2C(=O)[C@@H](NC(=O)OC(C)(C)C)[C@H](C)C1 [Compound 2003, 2-((1-(((2R,6S,7R,9R,13aS,14aR,16aS,Z)-6-((tert-butoxycarbonyl)amino)-7,9-dimethyl-14a-(((1-methylcyclopropyl)sulfonyl)carbamoyl)-5,16-dioxo-1,2,3,5,6,7,8,9,10,11,13a,14,14a,15,16,16a-hexadecahydrocyclopropa[e]pyrrolo[1,2-a][1,4]diazacyclopentadecin-2-yl)oxy)isoquinolin-6-yl)oxy)acetic acid]",,,> 87.4 nM,> 87.4 nM,"EC50 ([1]; HCV genotype 1a replicon luciferase assay, read-out: LE_1a (EC50)): 330 nM; EC50 ([2]; HCV genotype 1b replicon luciferase assay, read-out: LE_1b (EC50)): 158 nM"
"COc1ccc2c(O[C@@H]3C[C@H]4C(=O)N[C@]5(C(=O)NS(=O)(=O)C6(C)CC6)C[C@H]5/C=C\CC[C@H](C)C[C@@H](C)[C@H](NC(=O)OC(C)(C)C)C(=O)N4C3)nc(N(C)C)nc2c1 [Compound 3001, tert-butyl ((2R,6S,7R,9S,13aS,14aR,16aS,Z)-2-((2-(dimethylamino)-7-methoxyquinazolin-4-yl)oxy)-7,9-dimethyl-14a-(((1-methylcyclopropyl)sulfonyl)carbamoyl)-5,16-dioxo-1,2,3,5,6,7,8,9,10,11,13a,14,14a,15,16,16a-hexadecahydrocyclopropa[e]pyrrolo[1,2-a][1,4]diazacyclopentadecin-6-yl)carbamate]",,,< 5.46 nM,< 5.46 nM,
"COc1ccc2c(O[C@@H]3C[C@H]4C(=O)N[C@]5(C(=O)NS(=O)(=O)C6(C)CC6)C[C@H]5/C=C\CC[C@@H](C)C[C@@H](C)[C@H](NC(=O)OC(C)(C)C)C(=O)N4C3)nc(N(C)C)nc2c1 [Compound 3002, tert-butyl ((2R,6S,7R,9R,13aS,14aR,16aS,Z)-2-((2-(dimethylamino)-7-methoxyquinazolin-4-yl)oxy)-7,9-dimethyl-14a-(((1-methylcyclopropyl)sulfonyl)carbamoyl)-5,16-dioxo-1,2,3,5,6,7,8,9,10,11,13a,14,14a,15,16,16a-hexadecahydrocyclopropa[e]pyrrolo[1,2-a][1,4]diazacyclopentadecin-6-yl)carbamate]",,,< 5.46 nM,< 5.46 nM,
"COc1ccc2c(O[C@@H]3C[C@H]4C(=O)N[C@]5(C(=O)NS(=O)(=O)C6(C)CC6)C[C@H]5/C=C\CC[C@H](C)C[C@@H](C)[C@H](NC(=O)OC(C)(C)C(F)(F)F)C(=O)N4C3)nc(N(C)C)nc2c1 [Compound 3003, 1,1,1-trifluoro-2-methylpropan-2-yl((2R,6S,7R,9S,13aS,14aR,16aS,Z)-2-((2-(dimethylamino)-7-methoxyquinazolin-4-yl)oxy)-7,9-dimethyl-14a-(((1-methylcyclopropyl)sulfonyl)carbamoyl)-5,16-dioxo-1,2,3,5,6,7,8,9,10,11,13a,14,14a,15,16,16a-hexadecahydrocyclopropa[e]pyrrolo[1,2-a][1,4]diazacyclopentadecin-6-yl)carbamate]",,,< 5.46 nM,< 5.46 nM,
